Data as given in patent US20230270764A1, “COMPOSITION COMPRISING CANNABINOIDS, TERPENES, AND FLAVONOIDS FOR TREATING DEPRESSION” (priority 2020, published 2023).

Columns and labels:
LPS-injected mice [1] = test: Social exploration test in the LPS-induced model of depression; format: in vivo
Description: In a preliminary screening experiment, subjects were 4-6 months-old male C57BL/6 (Jackson Laboratories, USA). Animals were housed 2-3/cage, kept in an air-conditioned room (23+°C) and given ad libitum access to food and water. The mice were kept in a reversed light/dark cycle, with lights off from 7 a.m. to 7 p.m. All experiments were approved by the Hebrew University of Jerusalem Ethics Committee on Animal Care and Use. In preparation for the Sucrose Preference Test, mice were habituated 2-3 times to sucrose drinking, by exposing them overnight to two graduated tubes, one containing water and the other containing sucrose solution (1%, w/v). Water and sucrose consumption were measured, and sucrose preference was computed by dividing the amount of sucrose consumed by drinking (ml sucrose) by the total drinking volume (ml of sucrose + water). One day later, the weight of the mice and the food in their cages was weighed for later analysis of food consumption and body weight changes. […] In this test, the measured locomotor activity reflects not only motor capacity, but particularly the innate motivation for spatial exploration (which increases the distance travelled) and the anxiety level (which reduces the distance travelled, in general, and particularly the distance and time spent in the center of the open field). […] The distance travelled (cm), the velocity of the movement (cm/second), the time spent (seconds), distance travelled (cm) in the center area of the arena, as well as the number of entries from the perimeter area into the center of the arena were automatically measured over a 4-minute period, using EthoVision XT video tracking system and software (Noldus, The Netherlands). […] Social exploration, defined as the time of near contact between the nose of the subject and the juvenile in the small cage was recorded for 4 min, using computerized in-house software. Sucrose preference was assessed, as described above, between 8 to 27 hr post LPS injection. […]

LPS-injected mice [2] = test: Porsolt forced swim test in LPS-injected mice; format: in vivo; conditions: young-adult male mice
Experimental: Given the mixed effects that CBD administration had in the reversal of LPS-induced depressive-like behavior in young-adult mice, the effects of CBDA by itself, and in combination with CBD, were examined in young-adult (2.5-3.5 months old) female and male mice. Mice were injected (i.p.) with either vehicle, CBDA or CBD and CBDA combination, and 1 hr later with LPS (330 µg/kg). Following injections, the mice were examined according to the methods described in Example 8, apart from the Porsolt forced swim test that replaced the open field test in male mice. In this test, mice were placed in a plastic cylinder (with a height of 20 cm and diameter of 50 cm), filled with 25° C. water. The time spent immobile, defined as the absence of all movement except for motions required to maintain head above water, and the latency for the first immobility episode, were recorded for 6 min, and manually analyzed by an experienced experimenter.

C=C(C)[C@@H]1CCC(C)=C[C@H]1c1c(O)cc(CCCCC)cc1O [CBD, cannabidiol]
social exploration vs LPS-injected vehicle-treated mice (LPS-injected mice [1]; adult (6-9 months-old) male mice, acute CBD): significantly increased social interest | social exploration (LPS-injected mice [1]; adult and young adult female mice, acute CBD, saline or LPS): None of these parameters was influenced by treatment with CBD | LPS-induced reduction in social exploration (LPS-injected mice [1]; young-adult male mice, CBD 30 mg/kg i.p. 3 consecutive days): no effects

C=C(C)[C@@H]1CCC(C)=C[C@H]1c1c(O)cc(CCCCC)c(C(=O)O)c1O [CBDA, Cannabidiolic acid]
time spent in immobility, forced swim test (LPS-injected mice [2]; CBDA 1, 5 mg/kg, CBD 25 and CBDA 1 mg/kg): no significant difference | latency to the first episode of immobility (LPS-injected mice [2]; printed: CBDA 1 mg/kg): significantly increased
